Measurements as given in paper PMC9950073, “Alleviation of arthritis through prevention of neutrophil extracellular traps by an orally available inhibitor of protein arginine deiminase 4” (Scientific Reports, 2023).
pIC50: −log10 of the molar value.

How the values were obtained:
CYP3A4 = target: T1, CYP3A4 (Homo sapiens, UniProt P08684); test: CYP inhibition in human liver microsome, CYP3A4; assay type: in vitro ADME
T1 construct: from tissue; host or cells: human liver microsomes
Procedure: CYP inhibition: Human liver microsome (0.1–0.5 mg/mL for various CYPs) and appropriate probe substrates (2.5–20 µM) were incubated in potassium phosphate buffer with or without JBI-589 for 5 min at 37 °C. The reaction was initiated by addition of NADPH (1 mM), incubated at 37 °C for 10 min and quenched (0.5% Formic acid in internal standard (IS) containing ACN). Samples were then centrifuged and taken for LC–MS/MS analysis. Percent change in metabolite formation for each substrate under above conditions using formula: Percent inhibition = [1 − (test area ratio/control area ratio)] *100.

mouse neutrophils = test: NET formation assay on neutrophils isolated from orally dosed mice; assay type: in vivo; settings: 50 mg/kg orally for seven consecutive days
Procedure: To determine the effects of JBI-589 on NET formation, an in vitro NET assay was performed. In mouse neutrophils, ionomycin stimulation induced more than 90% of H4Cit-positivity and NET formation in approximately 15% of neutrophils. […] To evaluate the in vivo effects, JBI-589 at 50 mg/kg or vehicle (water) was orally administered twice daily for seven consecutive days. Four hours after the last administration, mouse neutrophils were isolated, and then a NET formation assay was performed.
Mouse peripheral blood was collected by retro-orbital puncture in ethylenediaminetetraacetic acid (EDTA) anticoagulated buffer supplemented with 1% endotoxin-free BSA in sterile PBS. Neutrophils were isolated by Percoll gradient centrifugation as described previously. The purity of neutrophils was more than 90% as confirmed by the Wright-Giemsa stain.
Mouse or human neutrophils were resuspended in HEPES-supplemented phenol red-free RPMI1640 medium and 1.5 × 10^4 cells were seeded per well in a 96-well plate. After incubating for 20 min at 37 °C and 5% CO2, the cells were stimulated with vehicle control or ionomycin (Sigma, Catalog No: I24222) (4 µM) for 4 h. Neutrophils were fixed with 4% paraformaldehyde (PFA), washed and permeabilized (0.1% Triton X-100, 0.1% sodium citrate) for 10 min at 4 °C. Subsequently, neutrophils were incubated with blocking buffer (2.5% BSA, 0.5% Tween-20 in 1 × PBS) at room temperature for an hour followed by overnight incubation with the primary antibody against citrullinated histone H4 (H4Cit, 1:250, catalog number: 07-596, Millipore, Burlington, MA). After washing 3 times with PBS, neutrophils were incubated with Hoechst 33342 (1:10,000, catalog number: H3570, Invitrogen). Images were obtained with a Zeiss Axiovert 200 M wide-field fluorescence microscope (Zeiss, Oberkochen, Germany) with the Zeiss AxioVision software. The percentages of H4Cit positive neutrophils and neutrophil extracellular traps (NETs) were calculated by quantifying more than 200 randomly selected cells. […]

[1] = test system: collagen induced arthritis; test: Collagen induced arthritis model in DBA/1 mice; assay type: in vivo; settings: Dexamethasone dose not given
human neutrophils = test: Cell Titer Glo viability assay, neutrophils; assay type: cell-based; settings: 24 h, up to 10 µM
Source text: All blood samples from healthy donors who participated in this study were obtained after informed consent in accordance with relevant guidelines and regulations given by the ACE Independent ethics committee for Jubilant Biosys Ltd and Office of Clinical Investigations at Boston Children’s Hospital. The ACE Independent ethics committee, Bangalore, approved the use of human whole blood/PBMC/Enriched Subset in Jubilant Biosys Ltd investigations, Drug Controller General of India (DCGI) Reg No. ECR/141/Indt/KA/2013. Briefly, 10 mL K2EDTA vacutainers were used to collect fresh blood from healthy donors (BD vacutainer, Catalog No: BD 367525). A total of 50 ml of blood was taken from a single, healthy human donor. Neutrophils were isolated from human blood using the EasySep Direct Human Neutrophil Isolation Kit, according to the manufacturer's instructions (Stem Cell Technology, Catalog No: 19666). For investigations conducted at Boston Children’s Hospital, experimental procedure was approved by the Office of Clinical Investigations at Boston Children’s Hospital (protocol number IRB-P00003283). […]
The CellTiter-Glo luminescent cell viability assay was performed on neutrophils/peripheral blood mononuclear cells according to the manufacturer’s instructions (Promega, catalog number: G7570)[35]. […] Luminescence was recorded with Perkin Elmer envision 2103 multilabel reader.

[2] = neutrophils isolated 4 h after last administration, ionomycin 4 µM
[3] = JBI-589 50 mg/kg po BID, Etanercept 25 mg/kg IP day 31–45

T1 sequence (P08684 whole entry): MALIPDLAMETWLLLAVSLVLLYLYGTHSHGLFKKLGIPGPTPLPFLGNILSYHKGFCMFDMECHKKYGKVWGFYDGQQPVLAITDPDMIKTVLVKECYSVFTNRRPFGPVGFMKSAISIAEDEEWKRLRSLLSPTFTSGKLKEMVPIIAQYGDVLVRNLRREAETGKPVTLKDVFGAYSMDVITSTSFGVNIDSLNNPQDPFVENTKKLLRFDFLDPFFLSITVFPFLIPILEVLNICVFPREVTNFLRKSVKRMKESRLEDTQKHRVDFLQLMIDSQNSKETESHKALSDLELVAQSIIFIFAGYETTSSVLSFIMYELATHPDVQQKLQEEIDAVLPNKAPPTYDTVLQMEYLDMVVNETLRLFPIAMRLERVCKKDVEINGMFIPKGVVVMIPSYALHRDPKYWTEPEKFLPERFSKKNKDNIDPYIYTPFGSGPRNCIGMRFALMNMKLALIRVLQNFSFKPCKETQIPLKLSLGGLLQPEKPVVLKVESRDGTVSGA

Cc1c(-c2cc3ccccc3n2Cc2ccc(F)cc2)nc2cc(C(=O)N3CCC[C@@H](N)C3)ccn12 [JBI-589, (R)-(3-aminopiperidin-1-yl)(2-(1-(4-fluorobenzyl)-1H-indol-2-yl)-3-methylimidazo[1,2-a]pyridin-7-yl)methanone]
inhibition at 10 min, 10 µM (CYP3A4; human liver microsomes, 10 µM, human liver microsome, read-out: CYP3A4 inhibition (% inh @10 µM)): < 50%
pIC50 (CYP3A4; predicted from % inhibition, text says major CYPs tested): < 5.00
H4Cit positivity compared with vehicle (mouse neutrophils; [2]): reduced both H4Cit positivity and NET formation significantly
NET formation compared with vehicle (mouse neutrophils; [2]): reduced both H4Cit positivity and NET formation significantly
percentage of H4Cit positive cells (mouse neutrophils; vehicle 88%, p = 0.01): 83%
clinical score ([1]; JBI-589 50 mg/kg po BID day 0-45, Etanercept 25 mg/kg IP day 31–45): significantly decreased
bone erosion (histopathology) [1, 3]: significantly decreased
joint inflammation (histopathology) [1, 3]: significantly decreased
pannus formation (histopathology) [1, 3]: significantly decreased
spleen weight ([1]; day 45, JBI-589 50 mg/kg po BID): no adverse effect
body weight ([1]; end of study, JBI-589 50 mg/kg po BID): no adverse effect
viability of neutrophils (human neutrophils): minimal or no changes
